Laboratory results as given in patent US20250154109A1, “SODIUM CHANNEL BLOCKING COMPOUNDS, DERIVATIVES THEREOF, AND METHODS OF THEIR USE” (LATIGO BIOTHERAPEUTICS, INC, priority 2022, published 2025).
Structures can show the parent of a compound that is named as a salt. Where two headings read alike, the source gives them in different places.

Biological target: human Nav1.8 (Homo sapiens, UniProt Q9Y5Y9)
Assay: SyncroPatch384PE assay (automated patch clamp)
Type: cell-based
Settings: human Nav1.8/b3 CHO cells
[1] = inactivated state block (P2 measurement), read-out: P2 IC50
[2] = resting state block (P1 measurement), read-out: P1 IC50

Chain of human Nav1.8 (Q9Y5Y9 whole entry): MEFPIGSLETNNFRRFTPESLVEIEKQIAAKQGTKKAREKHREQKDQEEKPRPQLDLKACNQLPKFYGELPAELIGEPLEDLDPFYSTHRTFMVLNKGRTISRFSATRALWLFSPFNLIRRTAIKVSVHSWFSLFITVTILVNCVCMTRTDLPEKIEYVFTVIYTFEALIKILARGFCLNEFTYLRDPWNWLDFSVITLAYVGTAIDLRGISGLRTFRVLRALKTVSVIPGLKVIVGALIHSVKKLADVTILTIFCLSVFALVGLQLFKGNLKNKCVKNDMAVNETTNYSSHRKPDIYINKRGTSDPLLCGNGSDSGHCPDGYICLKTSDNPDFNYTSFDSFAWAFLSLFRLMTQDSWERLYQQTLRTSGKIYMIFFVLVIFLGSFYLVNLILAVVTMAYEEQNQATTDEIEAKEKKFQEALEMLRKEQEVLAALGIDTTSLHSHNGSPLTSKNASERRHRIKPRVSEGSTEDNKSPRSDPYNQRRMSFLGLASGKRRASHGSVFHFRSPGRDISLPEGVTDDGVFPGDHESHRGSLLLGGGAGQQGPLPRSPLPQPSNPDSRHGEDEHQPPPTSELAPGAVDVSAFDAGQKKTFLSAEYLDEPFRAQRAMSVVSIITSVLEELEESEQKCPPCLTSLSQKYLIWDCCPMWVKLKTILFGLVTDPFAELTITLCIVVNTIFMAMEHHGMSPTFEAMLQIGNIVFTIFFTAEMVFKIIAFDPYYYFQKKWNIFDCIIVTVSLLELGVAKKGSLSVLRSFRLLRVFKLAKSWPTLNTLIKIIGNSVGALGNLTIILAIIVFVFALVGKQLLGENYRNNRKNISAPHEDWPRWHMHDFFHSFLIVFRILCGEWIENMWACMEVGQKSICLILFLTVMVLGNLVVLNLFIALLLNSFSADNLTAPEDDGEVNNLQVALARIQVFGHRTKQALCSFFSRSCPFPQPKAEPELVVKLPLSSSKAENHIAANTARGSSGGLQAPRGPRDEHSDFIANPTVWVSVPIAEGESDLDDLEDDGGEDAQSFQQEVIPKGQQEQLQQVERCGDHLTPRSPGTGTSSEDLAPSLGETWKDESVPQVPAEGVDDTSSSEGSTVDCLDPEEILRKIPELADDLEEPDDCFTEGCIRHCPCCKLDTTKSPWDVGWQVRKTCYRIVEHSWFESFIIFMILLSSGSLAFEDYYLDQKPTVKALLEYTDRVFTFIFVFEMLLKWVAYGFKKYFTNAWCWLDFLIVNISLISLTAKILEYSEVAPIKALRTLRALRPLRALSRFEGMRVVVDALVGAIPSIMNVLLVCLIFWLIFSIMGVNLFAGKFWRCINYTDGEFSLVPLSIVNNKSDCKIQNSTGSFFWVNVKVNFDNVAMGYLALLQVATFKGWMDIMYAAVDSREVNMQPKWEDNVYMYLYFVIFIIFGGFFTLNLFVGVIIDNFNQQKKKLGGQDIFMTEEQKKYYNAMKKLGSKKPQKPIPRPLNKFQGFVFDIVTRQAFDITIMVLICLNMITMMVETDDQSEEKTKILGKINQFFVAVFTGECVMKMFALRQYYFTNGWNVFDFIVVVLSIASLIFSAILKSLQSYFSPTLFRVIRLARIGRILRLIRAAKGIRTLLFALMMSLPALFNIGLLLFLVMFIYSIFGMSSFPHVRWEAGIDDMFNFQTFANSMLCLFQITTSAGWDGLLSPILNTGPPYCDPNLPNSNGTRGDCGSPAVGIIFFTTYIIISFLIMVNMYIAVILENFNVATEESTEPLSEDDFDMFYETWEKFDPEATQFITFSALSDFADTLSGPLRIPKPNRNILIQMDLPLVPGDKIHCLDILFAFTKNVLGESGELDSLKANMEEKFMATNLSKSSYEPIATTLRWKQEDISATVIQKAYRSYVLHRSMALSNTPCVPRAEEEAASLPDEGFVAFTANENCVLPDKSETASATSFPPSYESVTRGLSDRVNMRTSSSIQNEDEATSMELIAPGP

SMILES	IC50 [1]	IC50 [2]
Cc1c(C(F)(F)F)nnc(N2CCCC(F)(F)CC2)c1C(=O)Nc1cccc(S(=N)(N)=O)c1 (stereo not shown) [Example 115, 3-(4,4-difluoroazepan-1-yl)-5-methyl-N-(3-sulfamidimidoylphenyl)-6-(trifluoromethyl)pyridazine-4-carboxamide]	≤ 5 nM	≤ 5 nM
Cc1c(C(F)(F)F)nnc(N2CCC3(CC2)CC3)c1C(=O)Nc1cccc(S(C)(=N)=O)c1 (stereo not shown) [Example 94, 5-methyl-N-(3-(S-methylsulfonimidoyl)phenyl)-3-(6-azaspiro[2.5]octan-6-yl)-6-(trifluoromethyl)pyridazine-4-carboxamide]	> 200 nM	> 200 nM
Cc1c(C#N)cnc(N2CCCC(F)(F)CC2)c1C(=O)Nc1cccc(S(C)(=N)=O)c1 (stereo not shown) [Example 97, 5-cyano-2-(4,4-difluoroazepan-1-yl)-4-methyl-N-(3-(S-methylsulfonimidoyl)phenyl)nicotinamide]	5 to 50 nM	5 to 50 nM
Cc1cc(C(F)(F)F)nc(N2CCCC(F)(F)CC2)c1C(=O)Nc1cccc([S@](C)(=N)=O)c1 [Example 33, (R)-2-(4,4-Difluoroazepan-1-yl)-4-methyl-N-(3-(S-methylsulfonimidoyl)phenyl)-6-(trifluoromethyl)nicotinamide]	≤ 5 nM	≤ 5 nM
Cc1c(-c2cnn(C)c2)cnc(N2CCCC(F)(F)CC2)c1C(=O)Nc1cccc([S@@](C)(=O)=NC(=O)C2(N)CC2)c1 [Example 53, (R)-N-(3-(N-(1-aminocyclopropane-1-carbonyl)-S-methylsulfonimidoyl)phenyl)-2-(4,4-difluoroazepan-1-yl)-4-methyl-5-(1-methyl-1H-pyrazol-4-yl)nicotinamide formate]	5 to 50 nM	5 to 50 nM
C=CCCc1ccc(C(=O)Nc2cccc(S(C)(=N)=O)c2)c(N2CCCC(F)(F)CC2)n1 (stereo not shown) [Example 13, 6-(3-Buten-1-yl)-2-(4,4-difluoroazepan-1-yl)-N-(3-(S-methylsulfonimidoyl)phenyl)nicotinamide]	≤ 5 nM	≤ 5 nM
CS(=N)(=O)c1cc(NC(=O)c2cc(C(F)(F)F)nnc2N2CCCCCC2)ccn1 (stereo not shown) [Example 2, 3-(azepan-1-yl)-N-{2-[imino(methyl)oxo-λ^6-sulfanyl]pyridin-4-yl}-6-(trifluoromethyl)pyridazine-4-carboxamide]	> 200 nM	> 200 nM
Cc1c(-c2cnn(C)c2)nnc(N2CCCC(F)(F)CC2)c1C(=O)Nc1cccc([S@](C)(=N)=O)c1 [Example 71, (R)-3-(4,4-difluoroazepan-1-yl)-5-methyl-6-(1-methyl-1H-pyrazol-4-yl)-N-(3-(S-methylsulfonimidoyl)phenyl)pyridazine-4-carboxamide]	> 200 nM	> 200 nM
Cc1cc(C(F)(F)F)nc(N2CCCC(F)(F)CC2)c1C(=O)Nc1cccc([S@@](C)(=N)=O)c1 [Example 34, (S)-2-(4,4-Difluoroazepan-1-yl)-4-methyl-N-(3-(S-methylsulfonimidoyl)phenyl)-6-(trifluoromethyl)nicotinamide]	≤ 5 nM	≤ 5 nM
Cc1c(-c2cccc(F)c2)cnc(N2CCCC(F)(F)CC2)c1C(=O)Nc1cccc(S(C)(=N)=O)c1 (stereo not shown) [Example 82, 2-(4,4-difluoroazepan-1-yl)-5-(3-fluorophenyl)-4-methyl-N-(3-(S-methylsulfonimidoyl)phenyl)nicotinamide]	≤ 5 nM	≤ 5 nM
Cc1c(-c2cccc(F)c2)cnc(N2CCCC(F)(F)CC2)c1C(=O)Nc1cccc([S@@](C)(=N)=O)c1 [Example 111, (S)-2-(4,4-difluoroazepan-1-yl)-5-(3-fluorophenyl)-4-methyl-N-(3-(S-methylsulfonimidoyl)phenyl)nicotinamide]	≤ 5 nM	≤ 5 nM
Cc1c(-c2ccc3c(c2)OCCO3)cnc(N2CCCC(F)(F)CC2)c1C(=O)Nc1cccc([S@](C)(=N)=O)c1 [Example 47, (R)-2-(4,4-difluoroazepan-1-yl)-5-(2,3-dihydrobenzo[b][1,4]dioxin-6-yl)-4-methyl-N-(3-(S-methylsulfonimidoyl)phenyl)nicotinamide]	5 to 50 nM	5 to 50 nM
Cc1c(-c2ccc(C#N)cc2)cnc(N2CCCC(F)(F)CC2)c1C(=O)Nc1cccc([S@](C)(=N)=O)c1 [Example 49, (R)-5-(4-cyanophenyl)-2-(4,4-difluoroazepan-1-yl)-4-methyl-N-(3-(S-methylsulfonimidoyl)phenyl)nicotinamide]	≤ 5 nM	≤ 5 nM
Cc1c(-c2cnn(C)c2)cnc(N2CCCC(F)(F)CC2)c1C(=O)Nc1cccc([S@@](C)(=O)=NC(=O)[C@@H](C)N)c1 [Example 75, N-(3-((R)-N-(D-alanyl)-S-methylsulfonimidoyl)phenyl)-2-(4,4-difluoroazepan-1-yl)-4-methyl-5-(1-methyl-1H-pyrazol-4-yl)nicotinamide]	5 to 50 nM	5 to 50 nM
Cc1c(C(F)(F)F)nnc(N2CCCCCC2)c1C(=O)Nc1cccc(S(C)(=N)=O)c1 (stereo not shown) [Example 7, 3-(azepan-1-yl)-5-methyl-N-(3-(S-methylsulfonimidoyl)phenyl)-6-(trifluoromethyl)pyridazine-4-carboxamide]	100 to 200 nM	100 to 200 nM
Cc1c(C#N)c(C(F)(F)F)nc(N2CCCC(F)(F)CC2)c1C(=O)Nc1cccc([S@@](C)(=O)=NC(=O)C2(N)CCC2)c1 [Example 73, (R)-N-(3-(N-(1-aminocyclobutane-1-carbonyl)-S-methylsulfonimidoyl)phenyl)-5-cyano-2-(4,4-difluoroazepan-1-yl)-4-methyl-6-(trifluoromethyl)nicotinamide]	5 to 50 nM	50 to 100 nM

Further lines, results first:

IC50 [1]	IC50 [2]	SMILES
≤ 5 nM	≤ 5 nM	Cc1c(-c2cnn(C)c2)nnc(N2CCCC(F)(F)CC2)c1C(=O)NC12CC(C(N)=O)(C1)C2 [Example 141, N-(3-carbamoylbicyclo[1.1.1]pentan-1-yl)-3-(4,4-difluoroazepan-1-yl)-5-methyl-6-(1-methyl-1H-pyrazol-4-yl)pyridazine-4-carboxamide]
≤ 5 nM	≤ 5 nM	Cc1nc(N2CCCC(F)(F)CC2)c(C(=O)Nc2cccc([S@](C)(=N)=O)c2)c(C)c1C(F)(F)F (single isomer, unassigned) [Example 186]
5 to 50 nM	5 to 50 nM	Cc1c(-c2cnn(C)c2)cnc(N2CCCC(F)(F)CC2)c1C(=O)Nc1cccc([S@@](C)(=O)=NCCN)c1 [Example 210, (R)-N-(3-(N-(2-aminoethyl)-S-methylsulfonimidoyl)phenyl)-2-(4,4-difluoroazepan-1-yl)-4-methyl-5-(1-methyl-1H-pyrazol-4-yl)nicotinamide 2,2,2-trifluoroacetate]
5 to 50 nM	5 to 50 nM	C[S@](=N)(=O)c1cccc(NC(=O)c2c(N3CCCC(F)(F)CC3)cnc(C(F)(F)F)c2Cl)c1 [Example 207, (S)-3-chloro-5-(4,4-difluoroazepan-1-yl)-N-(3-(S-methylsulfonimidoyl)phenyl)-2-(trifluoromethyl)isonicotinamide]
> 200 nM	> 200 nM	Cc1c(C(F)(F)F)nnc(N2CCCC(F)(F)CC2)c1C(=O)NC12CC(C(N)=O)(C1)C2 [Example 128, N-(3-carbamoylbicyclo[1.1.1]pentan-1-yl)-3-(4,4-difluoroazepan-1-yl)-5-methyl-6-(trifluoromethyl)pyridazine-4-carboxamide]
5 to 50 nM	5 to 50 nM	Cc1c(-c2cnn(C)c2)cnc(N2CCCC(F)(F)CC2)c1C(=O)Nc1cccc([S@@](C)(=O)=NC(=O)[C@H](C)O)c1 [Example 231, 2-(4,4-difluoroazepan-1-yl)-N-(3-((R)-N-((S)-2-hydroxypropanoyl)-S-methylsulfonimidoyl)phenyl)-4-methyl-5-(1-methyl-1H-pyrazol-4-yl)nicotinamide]
5 to 50 nM	5 to 50 nM	Cc1cc(C#N)nc(N2CCCC(F)(F)CC2)c1C(=O)Nc1cccc([S@](C)(=N)=O)c1 [Example 148, (R)-6-cyano-2-(4,4-difluoroazepan-1-yl)-4-methyl-N-(3-(S-methylsulfonimidoyl)phenyl)nicotinamide]
5 to 50 nM	5 to 50 nM	Cc1nc(C(F)(F)F)nc(N2CCCC(F)(F)CC2)c1C(=O)Nc1cccc([S@](C)(=N)=O)c1 [Example 135, (R)-4-(4,4-difluoroazepan-1-yl)-6-methyl-N-(3-(S-methylsulfonimidoyl)phenyl)-2-(trifluoromethyl)pyrimidine-5-carboxamide]
100 to 200 nM	100 to 200 nM	Cc1cc(-c2cnn(C)c2)nc(N2CCCC(F)(F)CC2)c1C(=O)Nc1cccc([S@](C)(=N)=O)c1 [Example 151, (R)-2-(4,4-difluoroazepan-1-yl)-4-methyl-6-(1-methyl-1H-pyrazol-4-yl)-N-(3-(S-methylsulfonimidoyl)phenyl)nicotinamide]
100 to 200 nM	> 200 nM	COc1ccc(-c2nnc(N3CCCC(F)(F)CC3)c(C(=O)Nc3cccc([S@](C)(=N)=O)c3)c2C)cc1 (single isomer, unassigned) [Example 138]
> 200 nM	> 200 nM	Cc1c(N2CC3(COC3)C2)nnc(N2CCCC(F)(F)CC2)c1C(=O)Nc1cccc([S@](C)(=N)=O)c1 [Example 140, (R)-3-(4,4-difluoroazepan-1-yl)-5-methyl-N-(3-(S-methylsulfonimidoyl)phenyl)-6-(2-oxa-6-azaspiro[3.3]heptan-6-yl)pyridazine-4-carboxamide]
50 to 100 nM	50 to 100 nM	Cc1c(C(F)(F)F)ncc(N2CCCC(F)(F)CC2)c1C(=O)Nc1cccc([S@](C)(=N)=O)c1 [Example 197, (R)-5-(4,4-difluoroazepan-1-yl)-3-methyl-N-(3-(S-methylsulfonimidoyl)phenyl)-2-(trifluoromethyl)isonicotinamide]
> 200 nM	> 200 nM	Cc1c(-c2cn[nH]c2)cnc(N2CCCC(F)(F)CC2)c1C(=O)Nc1cccc([S@](C)(=N)=O)c1 [Example 144, (R)-2-(4,4-difluoroazepan-1-yl)-4-methyl-N-(3-(S-methylsulfonimidoyl)phenyl)-5-(1H-pyrazol-4-yl)nicotinamide]
